# Test results as given in patent US20190060320A1, “MEDICAL USE OF PHARMACEUTICAL COMBINATION OR COMPOSITION” (Boehringer Ingelheim International GmbH, priority 2016, published 2019).
# Test: Multicentre, double-blind, placebo-controlled clinical trial of glycaemic and renal effects of linagliptin in patients with type 2 diabetes and albuminuria
# Assay type: in vivo, human
# Experimental: A multicentre, double-blind, placebo-controlled clinical trial investigates glycaemic and renal effects of linagliptin in patients with type 2 diabetes, album inuria and estimated GFR ≥30 ml/min/1.73 m2 (with or without renal function impairment).
# A total of 360 patients with type 2 diabetes (HbA1c 6.5-10%) and persistent albuminuria (urinary albumin-to-creatinine ratio [UACR] 30-3000 mg/gCr; i.e. micro- or macro-albuminuria) despite stable background (standard-of-care) of single renin-angiotensin system blockade (ARB or ACE inhibitor) are randomised to either linagliptin 5 mg (n=182) or placebo (n=178) for 24 weeks. Primary glycaemic and key secondary renal surrogate endpoints are HbA1c and UACR change from baseline over 24 weeks, respectively.
compound,measurement,setting,value
"CC#CCn1c(N2CCC[C@@H](N)C2)nc2c1c(=O)n(Cc1nc(C)c3ccccc3n1)c(=O)n2C [linagliptin, 1-[(4-methyl-quinazolin-2-yl)methyl]-3-methyl-7-(2-butyn-1-yl)-8-(3-(R)-amino-piperidin-1-yl)-xanthine]",placebo-adjusted gMean for time-weighted average of % change in UCAR from baseline,"over 24 weeks, linagliptin 5 mg vs placebo, 95% CI −15.0, 3.0, NS",−6.0%
same,gMean for time-weighted average of % change from baseline in UACR,"over 24 weeks, linagliptin 5 mg, 95% CI −16.8, −4.7",−11.0%
same,"difference in the changes from baseline vs. placebo in urinary albumin to creatinine ratio (UACR), subgroup on a background of metformin","post hoc exploratory subgroup analysis, linagliptin on metformin background (and CKD3, eGFR 30-60) compared to patients without metformin",numerically larger difference
same,placebo-adjusted mean HbA1c change from baseline,"week 24, linagliptin 5 mg vs placebo, 95% CI −0.78, −0.43, p<0.0001",−0.60%
